Data as given in patent US20260372306A1, “MICROBIOCIDAL HETEROBICYCLIC DIHYDROOXADIAZINE DERIVATIVES” (SYNGENTA CROP PROTECTION AG, priority 2022, published 2026).

Tests used:
[1] = tested on: Botryotinia fuckeliana; assay: Botryotinia fuckeliana syn. Botrytis cinerea (Gray Mould of Grapevine), growth inhibition in nutrient broth; type: cell-based; settings: Vogels broth, 24 °C, photometric, 3-4 days after application, read-out: control of Botryotinia fuckeliana (inhibition of growth)
Method: (§1) Mycelia fragments or conidia suspensions of a fungus prepared either freshly from liquid cultures of the fungus or from cryogenic storage, are directly mixed into nutrient broth. DMSO solutions of the test compound (max. 10 mg/mL) are diluted with 0.025% Tween20 by a factor of 50 and 10 μL of this solution is pipetted into a microtiter plate (96-well format). The nutrient broth containing the fungal spores/mycelia fragments is then added to give an end concentration of the tested compound. The test plates are incubated in the dark at 24 °C and 96% relative humidity. The inhibition of fungal growth is determined photometrically after 2 to 7 days, depending on the pathosystem, and percent antifungal activity relative to the untreated check is calculated.
(§2) Conidia of the fungus from cryogenic storage are directly mixed into nutrient broth (Vogels broth). After placing a (DMSO) solution of test compound into a microtiter plate (96-well format), the nutrient broth containing the fungal spores is added. The test plates are incubated at 24 °C and the inhibition of growth is determined photometrically 3-4 days after application.

[2] = tested on: Alternaria solani; assay: Alternaria solani (Early Blight of Tomato), tomato leaf disks, preventative; type: in vivo; settings: 200 ppm; tomato leaf disks cv. Baby; inoculated 2 days after application; assessed 5-7 days after application
Method: (§3) Leaf disks or leaf segments of various plant species are cut from plants grown in a greenhouse. The cut leaf disks or segments are placed in multiwell plates (24-well format) onto water agar. The leaf disks are sprayed with a test solution before (preventative) or after (curative) inoculation. Compounds to be tested are prepared as DMSO solutions (max. 10 mg/mL) which are diluted to the appropriate concentration with 0.025% Tween20 just before spraying. The inoculated leaf disks or segments are incubated under defined conditions (temperature, relative humidity, light, etc.) according to the respective test system. A single evaluation of disease level is carried out 3 to 14 days after inoculation, depending on the pathosystem. Percent disease control relative to the untreated check leaf disks or segments is then calculated.
Tomato leaf disks cv. Baby are placed on agar in multiwell plates (24-well format) and sprayed with the formulated test compound diluted in water. […] The inoculated leaf disks are incubated at 23 °C/21 °C (day/night) and 80% rh under a light regime of 12/12 h (light/dark) in a climate cabinet and the activity of a compound is assessed as percent disease control compared to untreated when an appropriate level of disease damage appears on untreated check disk leaf disks (5-7 days after application).

[3] = tested on: Glomerella lagenarium; assay: Glomerella lagenarium syn. Colletotrichum lagenarium (Anthracnose of Cucurbits), growth inhibition in nutrient broth; type: cell-based; settings: Colletotrichum orbiculare, PDB potato dextrose broth, 24 °C, photometric, 3-4 days after application, read-out: control of Glomerella lagenarium (inhibition of growth)
Method: as §1
as §2, with “(PDB potato dextrose” for “(Vogels”, “measured” for “determined”

[4] = tested on: Sclerotinia sclerotiorum; assay: Sclerotinia sclerotiorum (Cottony Rot of Oilseed Rape), growth inhibition in nutrient broth; type: cell-based; settings: PDB potato dextrose broth, 24 °C, photometric, 3-4 days after application, read-out: control of Sclerotinia sclerotiorum (inhibition of growth)
Method: as §1
as §2, with “Mycelia fragments of a newly grown liquid culture” for “Conidia”, “fungus” for “fungus from cryogenic storage”, “(PDB potato dextrose” for “(Vogels”, “format)” for “format),”, “material” for “spores”

[5] = tested on: Pyrenophora teres; assay: Pyrenophora teres (Net Blotch of Barley), barley leaf segments, preventative; type: in vivo; settings: 200 ppm; barley leaf segments cv. Hasso; inoculated 2 days after application; assessed 5-7 days after application
Method: as §3
Barley leaf segments cv. Hasso are placed on agar in a multiwell plate (24-well format) and sprayed with the formulated test compound diluted in water. […] The inoculated leaf segments are incubated at 20 °C and 65% rh under a light regime of 12 h light/12 h darkness in a climate cabinet and the activity of a compound is assessed as disease control compared to untreated when an appropriate level of disease damage appears in untreated check leaf segments (5-7 days after application).

[6] = tested on: Monographella nivalis; assay: Monographella nivalis syn. Microdochium nivale, Fusarium nivale (Snow Mould, Foot Rot of Cereals), growth inhibition in nutrient broth; type: cell-based; settings: PDB potato dextrose broth, 24 °C, photometric, 4-5 days after application, read-out: control of Monographella nivalis (inhibition of growth)
Method: as §1
as §2, with “(PDB potato dextrose” for “(Vogels”, “4-5” for “3-4”

[7] = tested on: Mycosphaerella graminicola; assay: Mycosphaerella graminicola (Septoria tritici) (Septoria Blotch), growth inhibition in nutrient broth; type: cell-based; settings: Zymoseptoria tritici, read-out: control of Mycosphaerella gramminicola (inhibition of growth)
Method: as §1
as §2, with “(PDB potato dextrose” for “(Vogels”, “4-5” for “3-4”

Compound	inhibition at 20 ppm [1] [%]	control of Alternaria solani (percent disease control compared to untreated) [2]	inhibition at 20 ppm [3] [%]	inhibition at 20 ppm [4] [%]	control of Pyrenophora teres (disease control compared to untreated) [5]	inhibition at 20 ppm [6] [%]	inhibition at 20 ppm [7] [%]
Fc1cc2ncc(Oc3cccc(C4CC4)c3)c(C3=NOCC(Cc4ccc(Cl)cc4Cl)N3)n2n1 (stereo not shown) [Compound 1.3, 3-[6-(3-cyclopropylphenoxy)-2-fluoro-pyrazolo[1,5-a]pyrimidin-7-yl]-5-[(2,4-dichlorophenyl)methyl]-5,6-dihydro-4H-1,2,4-oxadiazine]	≥ 80						
Clc1ccc(CC2CON=C(c3c(Oc4cccc(C5CC5)c4)cnc4cc(Cl)nn34)N2)c(Cl)c1 (stereo not shown) [Compound 1.4, 3-[2-chloro-6-(3-cyclopropylphenoxy)pyrazolo[1,5-a]pyrimidin-7-yl]-5-[(2,4-dichlorophenyl)methyl]-5,6-dihydro-4H-1,2,4-oxadiazine]	≥ 80						
Clc1ccc(CC2CON=C(c3c(Oc4cccc(C5CC5)c4)cnc4ccnn34)N2)c(Cl)c1 (stereo not shown) [Compound 1.1, 3-[6-(3-cyclopropylphenoxy)pyrazolo[1,5-a]pyrimidin-7-yl]-5-[(2,4-dichlorophenyl)methyl]-5,6-dihydro-4H-1,2,4-oxadiazine]	≥ 80	at least 80%	≥ 80	≥ 80	at least 80%		
Clc1ccc(CC2CON=C(c3c(Oc4cccc(C5CC5)c4)cnn4ccnc34)N2)c(Cl)c1 (stereo not shown) [Compound 1.5, 3-[7-(3-cyclopropylphenoxy)imidazo[1,2-b]pyridazin-8-yl]-5-[(2,4-dichlorophenyl)methyl]-5,6-dihydro-4H-1,2,4-oxadiazine]	≥ 80		≥ 80	≥ 80		≥ 80	≥ 80
Clc1ccc(CC2CON=C(c3c(Oc4cccc(C5CC5)c4)cnc4c(Cl)cnn34)N2)c(Cl)c1 (stereo not shown) [Compound 1.2, 3-[3-chloro-6-(3-cyclopropylphenoxy)pyrazolo[1,5-a]pyrimidin-7-yl]-5-[(2,4-dichlorophenyl)methyl]-5,6-dihydro-4H-1,2,4-oxadiazine]	≥ 80						
